Structures can show the parent of a compound that is named as a salt.
Target: T1, human GPR120 (Homo sapiens, UniProt Q5NUL3)
T1 construct: expressed in transfected cells
T1 sequence (Q5NUL3 1-361): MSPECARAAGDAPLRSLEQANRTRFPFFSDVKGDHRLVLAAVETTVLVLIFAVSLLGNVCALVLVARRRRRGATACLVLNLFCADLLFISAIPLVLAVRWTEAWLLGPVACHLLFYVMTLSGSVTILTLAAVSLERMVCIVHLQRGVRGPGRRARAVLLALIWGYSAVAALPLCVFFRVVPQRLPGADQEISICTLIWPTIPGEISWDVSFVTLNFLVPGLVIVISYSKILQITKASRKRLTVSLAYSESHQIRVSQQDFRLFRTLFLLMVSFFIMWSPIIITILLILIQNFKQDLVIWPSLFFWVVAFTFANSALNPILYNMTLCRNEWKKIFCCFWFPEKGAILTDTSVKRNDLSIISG
Experiment: Measurement of intracellular calcium concentration (FLIPR), GPR120 agonist action
Type: cell-based
Conditions: 10 μmol/l test compound, human GPR120 expression CHO cells, Fluo-4 AM
Experimental: Using Lipofectamine 2000 (Invitrogen), cDNA of GPR120 receptor was transfected into CHO/NFAT-BLA cells, and drug-resistant cells were isolated to obtain GPR120 stable expression strains. The GPR120-expressed CHO cells were cultured in DMEM/F12 medium containing 10% fetal bovine serum, 100 units/ml penicillin, 0.1 mg/ml streptomycin sulfate, 250 μg/ml Zeocin, 500 μg/mL Geneticin and 15 mM HEPES. On the day before the measurement day, 4 μM Fluo-4 AM (fluorescence calcium indicator reagent) was incubated to be introduced into the human GPR120 expression CHO cells plated at 20000 cells per well of a 96-well black plate (ViewPlate; Packard) in the presence of 2.5 mM probenecid in a CO2 incubator for 1 hour. To the cells was added the test compound diluted with HBSS solution containing 20 mM HEPES and 2.5 mM probenecid. Variations in the intracellular calcium concentration were measured by Fluorescence Imaging Plate Reader (FLIPR; Molecular Devices) to examine the agonist action, and EC50 values were calculated.

Structure (SMILES)	Agonistic activity at 10 μmol/l (%)
CC(C)Oc1cccc(C[C@@H](C)Oc2ccc(-c3cc(O)no3)cc2)c1 [Example 20]	94
CC(Cc1ccc(-c2cc(O)no2)cc1)Oc1ccc(Cl)cc1F (stereo not drawn) [Example 17, 5-(4-(2-(4-chloro-2-fluorophenoxy)propyl)phenyl)isoxazol-3-01]	97
CC(C)Oc1ccccc1C(C)COc1ccc(-c2cc(O)no2)c(F)c1 (stereo not drawn) [Example 39]	90
COc1cccc(C(F)COc2ccc(-c3cc(O)no3)cc2)c1 (stereo not drawn) [Example 2, 5-(4-(2-fluoro-2-(3-methoxyphenyl)ethoxy)phenyl)isoxazol-3-61]	110

Same assay, conditions: 10 μmol/l test compound, human GPR120 expression CHO cells, Fluo-4 AM, read-out: Agonistic activity at 10 μmol/l (%)

Structure (SMILES)	activation at 10 µM [%]
CC(C)Oc1cccc(C(C)(C)COc2ccc(-c3cc(O)no3)c(F)c2)c1 [Example 38, 5-{2-fluoro-4-[2-(3-isopropoxyphenyl)-2-methylpropoxy]phenyl}isoxazol-3-ol]	92
CC(C)Oc1cccc(C(=O)C(C)Oc2ccc(-c3cc(O)no3)cc2)c1 (stereo not drawn) [Example 46, 2-[4-(3-hydroxyisoxazol-5-yl)phenoxy]-1-(3-isopropoxyphenyl)propan-1-one]	91
CC(Cc1cccc(N(C)C)c1)Oc1ccc(-c2cc(O)no2)cc1 (stereo not drawn) [Example 45, 3-{2-[4-(3-hydroxyisoxazol-5-yl)phenoxy]propyl}-N,N-dimethylaniline Hydrochloride]	85
CC(C)Oc1cccc(C(C)OCc2ccc(-c3cc(O)no3)cc2)c1 (stereo not drawn) [Example 47, 5-(4-{[1-(3-isopropoxyphenyl)ethoxy]methyl}phenyl)isoxazol-3-ol]	92
C[C@H](Cc1ccc(Cl)c(OC(F)(F)F)c1)Oc1ccc(-c2cc(O)no2)cc1 [Example 25, 5-{4-[((1R)-2-{4-chloro-3-[(trifluoromethyl)oxy]phenyl}-1-methylethyl)oxy]phenyl}isoxazol-3-ol]	91
CCOc1cccc(CC(C)Oc2ccc(-c3cc(O)no3)c(F)c2)c1 (stereo not drawn) [Example 37, 5-{2-fluoro-4-[2-(3-ethoxyphenyl)-1-methylethoxy]phenyl}isoxazol-3-ol]	97
CC(C)Oc1cccc(N(C)CCc2ccc(-c3cc(O)no3)cc2)c1 [Example 48, N-{2-[4-(3-hydroxyisoxazol-5-yl)phenyl]ethyl}-3-isopropoxy-N-methylaniline Trifluoroacetate]	92
CC(C)Oc1cccc(CN(C)Cc2ccc(-c3cc(O)no3)cc2)c1 [Example 9, 5-(4-(((3-isopropoxybenzyl)(methyl)amino)methyl)phenyl)isoxazol-3-ol]	100
CC(C)Oc1cccc(C(C)COc2ccc(-c3cc(O)no3)cc2)c1 (stereo not drawn) [Example 4, 5-(4-(2-(3-isopropoxyphenyl)propoxy)phenyl)-isoxazol-3-ol]	98
CC(C)Oc1cccc(C(C)N(C)Cc2ccc(-c3cc(O)no3)cc2)c1 (stereo not drawn) [Example 41, 5-(4-{[[1-(3-isopropoxyphenyl)ethyl](methyl)amino]methyl}phenyl)isoxazol-3-ol]	87
CC(C)Oc1cc(C[C@H](C)Oc2ccc(-c3cc(O)no3)cc2)ccn1 [Example 63, 5-(4-(((1S)-1-methyl-2-(2-((1-methylethyl)oxy)pyridin-4-yl)ethyl)oxy)phenyl)isoxazol-3-ol Sodium Salt]	106
CC(C)Oc1cccc(C(F)(F)COc2ccc(-c3cc(O)no3)cc2)c1 [Example 36, 5-(4-(2,2-difluoro-2-(3-isopropoxyphenyl)ethoxy)phenyl)isoxazol-3-ol]	100
CC(C)Oc1cccc(C[C@@H](C)Oc2ccc(-c3cc(O)no3)c(F)c2)c1 [Example 28, 5-{2-fluoro-4-[((1R)-1-methyl-2-{3-[(1-methylethyl)oxy]phenyl}ethyl)oxy]phenyl}isoxazol-3-ol]	97
CC(Cc1cccc(OC(C)C)c1)Nc1ccc(-c2cc(O)no2)cc1 (stereo not drawn) [Example 59, 4-(3-hydroxyisoxazol-5-yl)-N-[2-(3-isopropoxyphenyl)-1-methylethyl]aniline Trifluoroacetate]	96
CC(C)Oc1cccc(OC(C)Cc2ccc(-c3cc(O)no3)cc2)c1 (stereo not drawn) [Example 52, 5-{4-[2-(3-isopropoxyphenoxy)propyl]phenyl}isoxazol-3-ol]	96
CCOc1cccc(CC(C)Oc2ccc(-c3cc(O)no3)cn2)c1 (stereo not drawn) [Example 43, 2-[2-(3-ethoxyphenyl)-1-methylethoxy]-5-(3-hydroxyisoxazole-5-yl)pyridinium Trifluoroacetate]	94
CCC(Cc1cccc(OC(C)C)c1)Oc1ccc(-c2cc(O)no2)cc1 (stereo not drawn) [Example 34, 5-(4-(2-(3-isopropoxyphenyl)-1-ethylethoxy)phenyl)isoxazol-3-ol]	90
CC(C)Oc1cccc(CC(C)Oc2ccc(-c3cc(O)no3)cc2F)c1 (stereo not drawn) [Example 54, 5-{3-fluoro-4-[2-(3-isopropoxyphenyl)-1-methylethoxy]phenyl}isoxazol-3-ol]	100
CC(C)Oc1cccc(CC(C)Oc2ccc(-c3cc(O)no3)nc2)c1 (stereo not drawn) [Example 8, 5-(5-(2-(3-isopropoxyphenyl)-1-methylethoxy)pyridin-2-yl)isoxazol-3-ol]	96
CC(C)Oc1cccc(SC(C)Cc2ccc(-c3cc(O)no3)cc2)c1 (stereo not drawn) [Example 55, 5-(4-{2-[(3-isopropoxyphenyl)thio]propyl}phenyl)isoxazol-3-ol]	101

From patent US20110065739A1, “NOVEL ISOXAZOLE DRIVATIVE” (priority 2008, published 2011)
